According to patent US8551988B2, “Benzimidazole derivatives: preparation and pharmaceutical applications” (Mei Pharma, Inc., priority 2003, dated 2013):
Like-named read-outs stand apart in the source and are kept apart here.

Columns and labels:
[1] = molecular target: HDAC1 enzyme (recombinant GST-HDAC1) (Homo sapiens (Human), UniProt Q13547); test: In vitro HDAC assay (BIOMOL fluorescent-based HDAC activity assay), HDAC1; format: biochemical
Experimental: (§1) The assay has been carried out in 96 well format and the BIOMOL fluorescent-based HDAC activity assay has been applied. […] Flur de lys Developer was added and the reaction was incubated for 10 min. Briefly, deacetylation of the substrate sensitizes it to the developer, which then generates a fluorophore (symbol). The fluorophore is excited with 360 nm light and the emitted light (460 nm) is detected on a fluorometric plate reader (Tecan Ultra Microplate detection system, Tecan Group Ltd.).
(§2) The analytical software, Prism 3.0 has been used to generate IC50 from a series of data.

[2] = molecular target: HDAC8 enzyme (recombinant GST-HDAC8) (Homo sapiens (Human), UniProt Q9BY41); test: In vitro HDAC assay (BIOMOL fluorescent-based HDAC activity assay), HDAC8; format: biochemical
Experimental: as §1, §2

[3] = read-out: HDAC1 Enzyme Activity IC50
[4] = read-out: HDAC8 Enzyme Activity IC50

HDAC1 enzyme (recombinant GST-HDAC1), sequence (Q13547 whole entry): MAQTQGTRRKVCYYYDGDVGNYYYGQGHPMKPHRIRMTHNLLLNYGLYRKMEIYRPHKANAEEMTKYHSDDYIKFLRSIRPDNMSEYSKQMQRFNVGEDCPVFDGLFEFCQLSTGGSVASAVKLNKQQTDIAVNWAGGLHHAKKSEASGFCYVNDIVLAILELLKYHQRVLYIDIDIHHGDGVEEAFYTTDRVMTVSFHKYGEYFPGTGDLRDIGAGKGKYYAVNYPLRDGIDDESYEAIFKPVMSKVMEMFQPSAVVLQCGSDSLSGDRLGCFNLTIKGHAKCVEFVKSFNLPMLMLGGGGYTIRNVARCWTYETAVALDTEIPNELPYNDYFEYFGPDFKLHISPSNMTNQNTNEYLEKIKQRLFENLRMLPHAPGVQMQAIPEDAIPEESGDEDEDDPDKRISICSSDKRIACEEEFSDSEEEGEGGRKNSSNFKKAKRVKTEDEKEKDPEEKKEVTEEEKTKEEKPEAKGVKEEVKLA
HDAC8 enzyme (recombinant GST-HDAC8), sequence (Q9BY41 whole entry): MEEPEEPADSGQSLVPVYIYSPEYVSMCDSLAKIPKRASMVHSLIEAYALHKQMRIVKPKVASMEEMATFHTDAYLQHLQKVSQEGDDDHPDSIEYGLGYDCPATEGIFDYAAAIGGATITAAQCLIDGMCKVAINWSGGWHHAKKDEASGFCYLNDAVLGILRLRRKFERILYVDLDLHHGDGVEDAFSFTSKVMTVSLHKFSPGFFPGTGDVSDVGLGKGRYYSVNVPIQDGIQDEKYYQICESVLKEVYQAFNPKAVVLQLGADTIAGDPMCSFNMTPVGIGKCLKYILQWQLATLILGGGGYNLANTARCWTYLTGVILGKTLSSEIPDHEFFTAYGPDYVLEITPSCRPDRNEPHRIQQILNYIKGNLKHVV

Row | Compound | IC50 [1, 3] [nM] | IC50 [2, 4] [nM] | IC50 ([1]; Free base, read-out: IC50 (HDAC1)) [nM] | IC50 ([2]; Free base, read-out: IC50 (HDAC8)) [nM]
1 | O=C(/C=C/c1ccc2c(c1)nc(-c1ccsc1)n2CCCO)NO [Compound 20, N-Hydroxy-3-[1-(3-hydroxy-propyl)-2-thiophen-3-yl-1H-benzimidazol-5-yl]-acrylamide] | 1910 | 537 |  | 
2 | CC(C)Cc1nc2cc(/C=C/C(=O)NO)ccc2n1CCCO [Compound 21, N-Hydroxy-3-[1-(3-hydroxy-propyl)-2-isobutyl-1H-benzimidazol-5-yl]-acrylamide] | 64 | 238 |  | 
3 | CCCCCCCCc1nc2cc(/C=C/C(=O)NO)ccc2n1CCCO [Compound 23, N-Hydroxy-3-[1-(3-hydroxy-propyl)-2-octyl-1H-benzimidazol-5-yl]-acrylamide] | 529 | 402 |  | 
4 | CC(C)Cc1nc2cc(/C=C/C(=O)NO)ccc2n1CCc1ccccc1 [Compound 25, N-Hydroxy-3-(2-isobutyl-1-phenethyl-1H-benzimidazol-5-yl]-acrylamide] | 1320 | 601 |  | 
5 | O=C(/C=C/c1ccc2c(c1)nc(CCc1ccccc1)n2CCc1cccnc1)NO [Compound 27, N-Hydroxy-3-(2-phenethyl-1-(2-pyridin-3-yl-ethyl)-1H-benzimidazol-5-yl]-acrylamide] | 92 | 329 |  | 
6 | O=C(/C=C/c1ccc2c(c1)nc(CCc1ccccc1)n2CCCN1CCCC1=O)NO [Compound 30, N-Hydroxy-3-{1-[3-(2-oxo-pyrrolidin-1-yl)-propyl]-2-phenethyl-1H-benzimidazol-5-yl}-acrylamide] | 195 | 724 |  | 
7 | O=C(/C=C/c1ccc2c(c1)nc(CCc1ccccc1)n2CCCN1CCOCC1)NO [Compound 31, N-Hydroxy-3-[1-(3-morpholin-4-propyl]-2-phenethyl-1H-benzimidazol-5-yl}-acrylamide] | 246 | 1090 |  | 
8 | O=C(/C=C/c1ccc2c(c1)nc(CCc1ccccc1)n2Cc1ccccc1)NO [Compound 33, N-Hydroxy-3-(1-Benzyl-2-phenethyl-1H-benzimidazol-5-yl}-acrylamide] | 449 | 1450 |  | 
9 | CC(C)Cc1nc2cc(/C=C/C(=O)NO)ccc2n1Cc1ccccc1 [Compound 34, N-Hydroxy-3-(1-Benzyl-2-isobutyl-1H-benzimidazol-5-yl}-acrylamide] | 1460 | 846 |  | 
10 | O=C(/C=C/c1ccc2c(c1)ncn2Cc1ccccc1)NO [Compound 35, N-Hydroxy-3-(1-Benzyl-1H-benzimidazol-5-yl}-acrylamide] | 371 | 412 |  | 
11 | O=C(/C=C/c1ccc2c(c1)ncn2CCc1ccccn1)NO [Compound 42, N-Hydroxy-3-[1-(2-pyridin-2-yl-ethyl)-1H-benzimidazol-5-yl]-acrylamide] | 479 | 237 |  | 
12 | CCn1c(C)nc2cc(/C=C/C(=O)NO)ccc21 [Compound 43, N-Hydroxy-3-(1-Ethyl-2-methyl-1H-benzimidazol-5-yl]-acrylamide] | 947 | 192 |  | 
13 | CCN(CC)CCn1c(CCc2ccccc2)nc2cc(/C=C/C(=O)NO)ccc21 [Compound 66, N-Hydroxy-3-[1-(2-diethylamino-ethyl)-2-phenethyl-1H-benzimidazol-5-yl]-acrylamide] | 72 | 255 |  | 
14 | O=C(/C=C/c1ccc2c(c1)nc(CCc1ccccc1)n2CCN1CCCCC1)NO [Compound 67, N-Hydroxy-3-[2-phenethyl-1-(piperidin-1-yl-ethyl)-1H-benzimidazol-5-yl]-acrylamide] |  |  | 37 | 254
